Values quoted from earlier work as cited in Sander's compilation of Henry's law constants (doi:10.1063/1.555654).

Experiment: Henry solubility constant Hcp at 298.15 K (mol/(m3 Pa))
Conditions: reference: Mackay and Shiu (1981); cited value

| SMILES | Henry solubility constant Hcp |
| --- | --- |
| CCCCCCCCC [nonane] | 2e-06 |
| C[C@H]1CC[C@H](C)CC1 [trans-1,4-dimethylcyclohexane] | 1.1e-05 |
| Clc1ccc(Cl)cc1 [1,4-dichlorobenzene] | 0.0063 |
| BrC(Br)Br [tribromomethane] | 0.016 |
| CCCCCC [hexane] | 5.9e-06 |
| C=C(C)CCC [2-methyl-1-pentene] | 3.6e-05 |
| c1ccc2c(c1)Cc1ccccc1-2 [2,3-benzindene] | 0.12 |
| C=CCCC [1-pentene] | 2.5e-05 |
| Cc1ccc(C)c(C)c1 [1,2,4-trimethylbenzene] | 0.0017 |
| CC(C)CC(C)(C)C [2,2,4-trimethylpentane] | 3e-06 |
| CCCC(C)C [2-methylpentane] | 5.9e-06 |
| C=C [ethene] | 4.6e-05 |
| ClCCl [dichloromethane] | 0.0038 |
| CCCCCCCC [octane] | 3.3e-06 |
| c1ccccc1 [benzene] | 0.0018 |
| C[C@@H]1CCCC[C@@H]1C [cis-1,2-dimethylcyclohexane] | 2.8e-05 |
| CCCCCCCCCCCC [dodecane] | 1.3e-06 |
| COP(=S)(OC)Oc1ccc([N+](=O)[O-])cc1 [methylparathion] | 50 |
| Cc1ccc(C(C)C)cc1 [1-methyl-4-(1-methylethyl)-benzene] | 0.0013 |
| C=C(Cl)CCl [2,3-dichloropropene] | 0.0028 |
| CCCC(C)CC (stereo unspecified) [3-methylhexane] | 4.2e-06 |
| CCCCC(C)CC (stereo unspecified) [3-methylheptane] | 2.7e-06 |
| ClC(Cl)C(Cl)(Cl)Cl [pentachloroethane] | 0.0045 |
| CCCCCCCCCC [decane] | 1.4e-06 |
| CCCCCc1ccccc1 [pentylbenzene] | 0.0017 |
| C=CC [propene] | 4.7e-05 |

| SMILES | Henry solubility constant Hcp |
| --- | --- |
| ClCC(Cl)(Cl)Cl [1,1,1,2-tetrachloroethane] | 0.0036 |
| CC(C)C(C)C(C)C [2,3,4-trimethylpentane] | 5.3e-06 |
| C#CC [propyne] | 0.0009 |
| C=CC(=C)C [2-methyl-1,3-butadiene] | 0.00013 |
| C=CC=C [1,3-butadiene] | 0.00013 |
| Cc1cccc(C)c1 [1,3-dimethylbenzene] | 0.0014 |
| CCc1ccc2ccccc2c1 [2-ethylnaphthalene] | 0.012 |
| CCc1cccc2ccccc12 [1-ethylnaphthalene] | 0.026 |
| Cc1cccc(C)c1C [1,2,3-trimethylbenzene] | 0.0031 |
| Cc1ccccc1 [methylbenzene] | 0.0015 |
| CCC(C)CC [3-methylpentane] | 5.8e-06 |
| CCC(C)C(C)C (stereo unspecified) [2,3-dimethylpentane] | 5.7e-06 |
| C1CCCCC1 [cyclohexane] | 5.6e-05 |
| ClC(Cl)(Cl)Cl [tetrachloromethane] | 0.0005 |
| BrCBr [dibromomethane] | 0.031 |
| Ic1ccccc1 [iodobenzene] | 0.0077 |
| Fc1ccccc1 [fluorobenzene] | 0.0016 |
| CCc1ccccc1 [ethylbenzene] | 0.0013 |
| c1ccc2cc3ccccc3cc2c1 [anthracene] | 0.17 |
| CC(C)C [2-methylpropane] | 8.3e-06 |
| Cl/C=C\CCl [cis-1,3-dichloropropene] | 0.0042 |
| CC(C)CCC(C)(C)C [2,2,5-trimethylhexane] | 2.9e-06 |
| CC(C)(C)c1ccccc1 [(1,1-dimethylethyl)-benzene] | 0.00083 |
| C=CCCCCCC [1-octene] | 1e-05 |
| Clc1ccc(C(c2ccc(Cl)cc2)C(Cl)(Cl)Cl)cc1 [1,1,1-trichloro-2,2-bis-(4-chlorophenyl)-ethane] | 0.19 |
| Clc1cccc(Cl)c1 [1,3-dichlorobenzene] | 0.0028 |

| SMILES | Henry solubility constant Hcp |
| --- | --- |
| c1ccc2c(c1)-c1cccc3cccc-2c13 [benzo[jk]fluorene] | 0.0045 |
| CC(C)C(C)C [2,3-dimethylbutane] | 7.7e-06 |
| C1CCCC1 [cyclopentane] | 5.4e-05 |
| C=CCC(C)C [4-methyl-1-pentene] | 1.6e-05 |
| CC1CCCCC1 [methylcyclohexane] | 2.5e-05 |
| CCCCC(C)CCC (stereo unspecified) [4-methyloctane] | 1e-06 |
| CCCCC [pentane] | 8e-06 |
| CCC(C)C [2-methylbutane] | 7.2e-06 |
| c1ccc2ccccc2c1 [naphthalene] | 0.023 |
| Clc1ccccc1 [chlorobenzene] | 0.0029 |
| CC(C)CCl [1-chloro-2-methylpropane] | 0.0083 |
| Cc1cc(C)cc(C)c1 [1,3,5-trimethylbenzene] | 0.0017 |
| CCC(C)c1ccccc1 (stereo unspecified) [(1-methylpropyl)-benzene] | 0.00071 |
| CCc1ccc(C)cc1 [1-ethyl-4-methylbenzene] | 0.002 |
| CCCc1ccccc1 [propylbenzene] | 0.0014 |
| CC(C)Cc1ccccc1 [(2-methylpropyl)-benzene] | 0.0003 |
| C#CCC [1-butyne] | 0.00052 |
| ClC1=C(Cl)[C@]2(Cl)[C@@H]3[C@@H]4C[C@@H]([C@H]5O[C@@H]45)[C@@H]3[C@@]1(Cl)C2(Cl)Cl [dieldrin] | 0.91 |
| C=CCCl [3-chloro-1-propene] | 0.00091 |
| CC(C)(C)C [dimethylpropane] | 2.7e-06 |
| CCC(C)(C)C [2,2-dimethylbutane] | 5.8e-06 |
| CCCC [butane] | 1e-05 |
| CC(Cl)(Cl)Cl [1,1,1-trichloroethane] | 0.00036 |
| Cc1ccc(C)cc1 [1,4-dimethylbenzene] | 0.0014 |
| ClC1C(Cl)C(Cl)C(Cl)C(Cl)C1Cl (stereo unspecified) [γ-1,2,3,4,5,6-hexachlorocyclohexane] | 3.1 |
| CC1CCCC1 [methylcyclopentane] | 2.7e-05 |

| SMILES | Henry solubility constant Hcp |
| --- | --- |
| CCCCCCC [heptane] | 4.3e-06 |
| COP(=S)(Oc1cc(Cl)c(Br)cc1Cl)c1ccccc1 (stereo unspecified) [leptophos] | 3.7 |
| Cl/C=C/CCl [trans-1,3-dichloropropene] | 0.0056 |
| CCC(C)(C)CC [3,3-dimethylpentane] | 5.4e-06 |
| CCCC(C)(C)C [2,2-dimethylpentane] | 3.1e-06 |
| C/C=C/CCCC [trans-2-heptene] | 2.4e-05 |
| ClC(Cl)C(Cl)Cl [1,1,2,2-tetrachloroethane] | 0.021 |
| C=CC(C)C [3-methyl-1-butene] | 1.8e-05 |
| Cc1ccccc1C [1,2-dimethylbenzene] | 0.002 |
| ClC(Cl)=C(Cl)Cl [tetrachloroethene] | 0.00043 |
| CC(C)CC(C)C [2,4-dimethylpentane] | 3.3e-06 |
| Cc1cccc2ccccc12 [1-methylnaphthalene] | 0.022 |
| c1ccc(-c2ccccc2)cc1 [biphenyl] | 0.036 |
| ClCC(Cl)Cl [1,1,2-trichloroethane] | 0.0083 |
| Brc1ccccc1 [bromobenzene] | 0.0048 |
| CC1CCC(C)(C)C1 (stereo unspecified) [1,1,3-trimethylcyclopentane] | 6.3e-06 |
| CCCCCC1CCCC1 [pentylcyclopentane] | 5.4e-06 |
| c1ccc2c(c1)ccc1ccccc12 [phenanthrene] | 0.25 |
| CCCCc1ccccc1 [butylbenzene] | 0.00077 |
| ClC1=C(Cl)[C@]2(Cl)[C@H]3[C@H]([C@@H]4C=C[C@H]3C4)[C@@]1(Cl)C2(Cl)Cl [aldrin] | 0.36 |
| CCCCC(C)C [2-methylhexane] | 2.9e-06 |
| c1cc2c3c(cccc3c1)CC2 [acenaphthene] | 0.042 |
| CCCl [chloroethane] | 0.005 |
